Tested on: SARS-CoV-2
Assay: microbe, parasite or virus in culture
Conditions: Severe acute respiratory syndrome coronavirus 2, Vero C1008, 48 h

Nc1ccc(C(=O)N2CC3CC(CN(Cc4ccccc4)C3)C2)cc1 [AMBASILIDE] showed an IC50 of over 20 µM and an IC50 (read-out: pIC50 (converted)) of over 20 µM.

Work on CC(C)(Oc1ccc(CCNC(=O)c2ccc(Cl)cc2)cc1)C(=O)O [BEZAFIBRATE] yielded an IC50 of over 20 µM and an IC50 (read-out: pIC50 (converted)) of over 20 µM.

In the case of Cc1cc(O)c2c(c1)C(=O)c1cc(O)cc(O)c1C2=O [EMODIN], the IC50 is reported as over 20 µM and the IC50 (read-out: pIC50 (converted)) is reported as over 20 µM.

With COc1cc2c(cc1OC)[C@@H]1C(=O)c3ccc4c(c3O[C@@H]1CO2)C=CC(C)(C)O4 [DEGUELIN] the IC50 was over 20 µM and the IC50 (read-out: pIC50 (converted)) was over 20 µM.

CCC(C)C(CC)C(N)=O (stereo not drawn) [VALNOCTAMIDE] was tested, and the IC50 was over 20 µM and the IC50 (read-out: pIC50 (converted)) was over 20 µM.

Compound [N-]=[N+]=N[C@]1(CO)O[C@@H](n2ccc(N)nc2=O)[C@@H](F)[C@@H]1O [RO-0622] has an IC50 of over 20 µM and an IC50 (read-out: pIC50 (converted)) of over 20 µM.

Compound CC(C)(CNC(N)=O)NCC(O)COC(=O)c1ccccc1F (stereo not drawn) [FLESTOLOL] has an IC50 of over 20 µM and an IC50 (read-out: pIC50 (converted)) of over 20 µM.

In the case of c1cc2c(cc1C1CCCCC1)c1c3n2CCNC3CCC1 (stereo not drawn), the IC50 is reported as over 20 µM and the IC50 (read-out: pIC50 (converted)) is reported as over 20 µM.

CCCCNc1c(C(=O)OCC)c(C)nc2c1cnn2CC [TRACAZOLATE] gave an IC50 of over 20 µM and an IC50 (read-out: pIC50 (converted)) of over 20 µM.

For C[C@@H]1CC[C@@]2(OC1)OC1CC3C4CC[C@H]5CC(O)CC[C@]5(C)C4CC[C@]3(C)C1[C@@H]2C (stereo partly drawn), the IC50 was over 20 µM and the IC50 (read-out: pIC50 (converted)) was over 20 µM.

Compound CCCCCc1ccc(C)cc1O [AMYLMETACRESOL] has an IC50 of over 20 µM and an IC50 (read-out: pIC50 (converted)) of over 20 µM.

Nc1ccn([C@@H]2CS[C@H](CO)O2)c(=O)n1 [LAMIVUDINE] showed an IC50 of over 50.1 µM and an IC50 (read-out: pIC50 (converted)) of over 50.1 µM.

With COc1cc2c(cc1OC)C(CCc1ccc(Cl)cc1)N(C)CC2 (stereo not drawn) [METHOPHOLINE] the IC50 was over 20 µM and the IC50 (read-out: pIC50 (converted)) was over 20 µM.

With O=C1OC(CN2CCOCC2)CN1/N=C/c1ccc([N+](=O)[O-])o1 (stereo not drawn) [FURALTADONE] the IC50 was over 20 µM and the IC50 (read-out: pIC50 (converted)) was over 20 µM.

OC[C@H]1O[C@@H]2O[C@H]3[C@H](O)[C@@H](O)[C@@H](O[C@H]4[C@H](O)[C@@H](O)[C@@H](O[C@H]5[C@H](O)[C@@H](O)[C@@H](O[C@H]6[C@H](O)[C@@H](O)[C@@H](O[C@H]7[C@H](O)[C@@H](O)[C@@H](O[C@H]8[C@H](O)[C@@H](O)[C@@H](O[C@H]1[C@H](O)[C@H]2O)O[C@@H]8CO)O[C@@H]7CO)O[C@@H]6CO)O[C@@H]5CO)O[C@@H]4CO)O[C@@H]3CO [BETADEX] was tested, and the IC50 was over 20 µM and the IC50 (read-out: pIC50 (converted)) was over 20 µM.

O=C1C(O)=C(O)C(=O)C(O)=C1O [TETROQUINONE] showed an IC50 of over 20 µM and an IC50 (read-out: pIC50 (converted)) of over 20 µM.

Compound NC(=O)c1ccc(I)c([N+](=O)[O-])c1 [INIPARIB] has an IC50 of over 20 µM and an IC50 (read-out: pIC50 (converted)) of over 20 µM.

Work on CC12CCC3C(CC=C4CC(O)CCC43C)C1CCC2=O (stereo not drawn) yielded an IC50 of over 20 µM and an IC50 (read-out: pIC50 (converted)) of over 20 µM.

Work on Nc1cc(C(Cl)=C(Cl)Cl)c(S(N)(=O)=O)cc1S(N)(=O)=O [CLORSULON] yielded an IC50 of over 20 µM and an IC50 (read-out: pIC50 (converted)) of over 20 µM.

In the case of Cc1c(C)c2ccc(OCCCN3CCN(Cc4ccc(Cl)cc4)CC3)cc2oc1=O, the IC50 is reported as over 20 µM and the IC50 (read-out: pIC50 (converted)) is reported as over 20 µM.

Compound Oc1ccc2[nH]cc(CCCCN3CC=C(c4ccccc4)CC3)c2c1 [ROXINDOLE] has an IC50 of over 20 µM and an IC50 (read-out: pIC50 (converted)) of over 20 µM.

Work on NS(=O)(=O)NC[C@H]1COc2cc(Cl)ccc2O1 [JNJ-26489112] yielded an IC50 of over 20 µM and an IC50 (read-out: pIC50 (converted)) of over 20 µM.

Work on NC1(C(=O)N[C@@H](CCO)c2ccc(Cl)cc2)CCN(c2nc[nH]c3nccc2-3)CC1 [CAPIVASERTIB] yielded an IC50 of over 20 µM and an IC50 (read-out: pIC50 (converted)) of over 20 µM.

Work on O=c1cccc2n1CC1CC2CN2CCCCC12 (stereo not drawn) yielded an IC50 of over 20 µM and an IC50 (read-out: pIC50 (converted)) of over 20 µM.

With CN1CCN(C(c2ccccc2)c2ccccc2)CC1 [CYCLIZINE] the IC50 was over 20 µM and the IC50 (read-out: pIC50 (converted)) was over 20 µM.

CN(C)CC[C@@H](c1ccc(Cl)cc1)c1ccccn1 [DEXCHLORPHENIRAMINE] was tested, and the IC50 was over 20 µM and the IC50 (read-out: pIC50 (converted)) was over 20 µM.

In the case of C=C[C@H]1CN2CC[C@H]1C[C@H]2[C@H](O)c1ccnc2ccccc12 [CINCHONIDINE], the IC50 is reported as over 20 µM and the IC50 (read-out: pIC50 (converted)) is reported as over 20 µM.

N=C(N)NC(=O)c1nc(Cl)c(N)nc1N [AMILORIDE] was tested, and the IC50 was over 50.1 µM and the IC50 (read-out: pIC50 (converted)) was over 50.1 µM.

With COc1ccc(N2CCN(c3cccc(C)c3)CC2)nn1 the IC50 was over 20 µM and the IC50 (read-out: pIC50 (converted)) was over 20 µM.
